# Experimental data taken from ChEMBL document CHEMBL3875178, “Discovery of oral-available resveratrol-caffeic acid based hybrids inhibiting acetylated and phosphorylated STAT3 protein” (Eur J Med Chem, 2016).
# Active and inactive are the calls of the source. The calls are words filed in the database; no cut-off is given here.
# How the values were obtained:
# [1] = Growth inhibition of human HT-29 cells after 48 hrs by MTT assay; format: functional, cell-based; conditions: HT-29, 48 h
# [2] = Growth inhibition of human MDA-MB-231 cells after 48 hrs by MTT assay; format: functional, cell-based; conditions: MDA-MB-231, 48 h
# [3] = tested on: HT-29; assay: Potency index, ratio of resveratrol IC50 to compound IC50 for human HT-29 cells; format: functional
# [4] = tested on: MDA-MB-231; assay: Potency index, ratio of caffeic acid IC50 to compound IC50 for human MDA-MB-231 cells; format: functional
# [5] = tested on: MDA-MB-231; assay: Induction of apoptosis in human MDA-MB-231 cells assessed as early apoptotic cells at 5 uM after 48 hrs by Annexin-V FITC/propidium iodide staining based flow cytometry (reference value: 2.6%); format: functional
# [6] = tested on: MDA-MB-231; assay: Induction of apoptosis in human MDA-MB-231 cells assessed as necrotic cells at 5 uM after 48 hrs by Annexin-V FITC/propidium iodide staining based flow cytometry (reference value: 0.8%); format: functional
# [7] = tested on: MDA-MB-231; assay: Induction of apoptosis in human MDA-MB-231 cells assessed as live cells at 2 uM after 48 hrs by Annexin-V FITC/propidium iodide staining based flow cytometry (reference value: 96.1%); format: functional
# [8] = biological target: Signal transducer and activator of transcription 3 (Homo sapiens) (UniProt P40763); assay: Inhibition of STAT3 acetylation at Lys-685 residue in human MDA-MB-231 cells assessed as increase in DLEC1 mRNA at 1- 10 uM expression after 48 hrs by RT-PCR method; format: cell-based
# Chain of Signal transducer and activator of transcription 3 (Homo sapiens) (P40763 whole entry): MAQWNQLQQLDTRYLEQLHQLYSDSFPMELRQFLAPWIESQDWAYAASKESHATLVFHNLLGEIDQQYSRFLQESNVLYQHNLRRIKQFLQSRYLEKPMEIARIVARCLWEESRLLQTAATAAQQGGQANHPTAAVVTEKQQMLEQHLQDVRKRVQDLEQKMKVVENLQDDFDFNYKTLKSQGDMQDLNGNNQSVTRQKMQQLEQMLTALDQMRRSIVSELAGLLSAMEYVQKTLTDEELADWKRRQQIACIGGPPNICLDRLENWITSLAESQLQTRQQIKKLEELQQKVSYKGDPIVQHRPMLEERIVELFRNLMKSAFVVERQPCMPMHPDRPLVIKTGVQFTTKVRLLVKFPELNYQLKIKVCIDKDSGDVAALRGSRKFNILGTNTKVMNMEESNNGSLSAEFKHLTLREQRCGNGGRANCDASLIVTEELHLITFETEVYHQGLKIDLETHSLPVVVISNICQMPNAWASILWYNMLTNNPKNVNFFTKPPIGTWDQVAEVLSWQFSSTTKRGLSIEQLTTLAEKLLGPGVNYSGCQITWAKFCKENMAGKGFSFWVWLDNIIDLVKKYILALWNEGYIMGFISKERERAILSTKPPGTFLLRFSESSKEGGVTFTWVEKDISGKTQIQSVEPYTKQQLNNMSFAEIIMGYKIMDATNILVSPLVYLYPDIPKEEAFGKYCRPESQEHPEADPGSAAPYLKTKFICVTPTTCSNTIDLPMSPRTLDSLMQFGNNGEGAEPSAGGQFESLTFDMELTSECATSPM
# [9] = tested on: MDA-MB-231; assay: Potency index, ratio of resveratrol IC50 to compound IC50 for human MDA-MB-231 cells; format: functional
# [10] = tested on: MDA-MB-231; assay: Induction of apoptosis in human MDA-MB-231 cells assessed as live cells at 1 uM after 48 hrs by Annexin-V FITC/propidium iodide staining based flow cytometry (reference value: 96.1%); format: functional
# [11] = tested on: MDA-MB-231; assay: Induction of apoptosis in human MDA-MB-231 cells assessed as live cells at 8 uM after 48 hrs by Annexin-V FITC/propidium iodide staining based flow cytometry (reference value: 96.1%); format: functional
# [12] = tested on: MDA-MB-231; assay: Induction of apoptosis in human MDA-MB-231 cells assessed as late apoptotic cells at 5 uM after 48 hrs by Annexin-V FITC/propidium iodide staining based flow cytometry (reference value: 0.4%); format: functional
# [13] = biological target: Signal transducer and activator of transcription 3 (Homo sapiens) (UniProt P40763); assay: Inhibition of STAT3 acetylation at Lys-685 residue in human MDA-MB-231 cells after 48 hrs by Western blot method; format: cell-based
# [14] = tested on: MDA-MB-231; assay: Induction of apoptosis in human MDA-MB-231 cells assessed as late apoptotic cells at 2 uM after 48 hrs by Annexin-V FITC/propidium iodide staining based flow cytometry (reference value: 0.4%); format: functional
# [15] = tested on: Mus musculus; assay: Toxicity in Kunming mouse implanted with mouse 4T1 cells assessed as body weight loss at 10 to 20 mg/kg, po qd for 14 days measured during compound dosing; format: organism-based; conditions: in vivo, 336 h
# [16] = tested on: MDA-MB-231; assay: Induction of apoptosis in human MDA-MB-231 cells assessed as necrotic cells at 1 uM after 48 hrs by Annexin-V FITC/propidium iodide staining based flow cytometry (reference value: 0.8%); format: functional
# [17] = tested on: MDA-MB-231; assay: Induction of apoptosis in human MDA-MB-231 cells assessed as early apoptotic cells at 10 uM after 48 hrs by Annexin-V FITC/propidium iodide staining based flow cytometry (reference value: 2.6%); format: functional
# [18] = tested on: MDA-MB-231; assay: Induction of apoptosis in human MDA-MB-231 cells assessed as late apoptotic cells at 1 uM after 48 hrs by Annexin-V FITC/propidium iodide staining based flow cytometry (reference value: 0.4%); format: functional
# [19] = tested on: MDA-MB-231; assay: Induction of apoptosis in human MDA-MB-231 cells assessed as early apoptotic cells at 8 uM after 48 hrs by Annexin-V FITC/propidium iodide staining based flow cytometry (reference value: 2.6%); format: functional
# [20] = tested on: MDA-MB-231; assay: Induction of apoptosis in human MDA-MB-231 cells assessed as necrotic cells at 2 uM after 48 hrs by Annexin-V FITC/propidium iodide staining based flow cytometry (reference value: 0.8%); format: functional
# [21] = tested on: MDA-MB-231; assay: Induction of apoptosis in human MDA-MB-231 cells assessed as increase in cleaved caspase-3 expression after 48 hrs by Western blot method; format: functional, cell-based
# [22] = biological target: Signal transducer and activator of transcription 3 (Homo sapiens) (UniProt P40763); assay: Inhibition of STAT3 phosphorylation at Tyr-705 residue in human MDA-MB-231 cells assessed as decrease in Cyclin D1 mRNA expression at 1 to 5 uM after 48 hrs by RT-PCR method; format: cell-based
# [23] = biological target: Signal transducer and activator of transcription 3 (Homo sapiens) (UniProt P40763); assay: Inhibition of STAT3 acetylation at Lys-685 residue in human MDA-MB-231 cells assessed as increase in PTPN6 mRNA at 1- 10 uM expression after 48 hrs by RT-PCR method; format: cell-based
# [24] = tested on: MDA-MB-231; assay: Induction of apoptosis in human MDA-MB-231 cells assessed as increase in cleaved caspase-9 expression after 48 hrs by Western blot method; format: functional, cell-based
# [25] = tested on: 4T1; assay: Antitumor activity against mouse 4T1 cells implanted in Kunming mouse assessed as tumor growth inhibition at 10 to 20 mg/kg, po qd for 14 days; format: functional, organism-based
# [26] = biological target: Signal transducer and activator of transcription 3 (Homo sapiens) (UniProt P40763); assay: Inhibition of STAT3 phosphorylation at Tyr-705 residue in human MDA-MB-231 cells assessed as decrease in Bcl2 protein expression at 1 to 5 uM after 48 hrs by Western blot method; format: cell-based
# [27] = biological target: Signal transducer and activator of transcription 3 (Homo sapiens) (UniProt P40763); assay: Inhibition of STAT3 phosphorylation at Tyr-705 residue in human MDA-MB-231 cells assessed as decrease in Bcl2 mRNA expression at 1 to 5 uM after 48 hrs by RT-PCR method; format: cell-based
# [28] = biological target: Signal transducer and activator of transcription 3 (Homo sapiens) (UniProt P40763); assay: Inhibition of STAT3 acetylation at Lys-685 residue in human MDA-MB-231 cells assessed as increase in CDKN2A mRNA at 1- 10 uM expression after 48 hrs by RT-PCR method; format: cell-based
# [29] = tested on: MDA-MB-231; assay: Induction of apoptosis in human MDA-MB-231 cells assessed as increase in cleaved caspase-8 expression after 48 hrs by Western blot method; format: functional, cell-based
# [30] = Effect on total STAT3 protein level in human MDA-MB-231 cells at 1 to 5 uM after 48 hrs by Western blot method; format: ADME, cell-based; conditions: mda-mb-231, 48 h
# [31] = biological target: Signal transducer and activator of transcription 3 (Homo sapiens) (UniProt P40763); assay: Inhibition of STAT3 phosphorylation at Tyr-705 residue in human MDA-MB-231 cells after 48 hrs by Western blot method; format: cell-based
# [32] = tested on: MDA-MB-231; assay: Induction of apoptosis in human MDA-MB-231 cells assessed as late apoptotic cells at 8 uM after 48 hrs by Annexin-V FITC/propidium iodide staining based flow cytometry (reference value: 0.4%); format: functional
# [33] = tested on: MDA-MB-231; assay: Induction of apoptosis in human MDA-MB-231 cells assessed as live cells at 10 uM after 48 hrs by Annexin-V FITC/propidium iodide staining based flow cytometry (reference value: 96.1%); format: functional
# [34] = tested on: MDA-MB-231; assay: Induction of apoptosis in human MDA-MB-231 cells assessed as late apoptotic cells at 10 uM after 48 hrs by Annexin-V FITC/propidium iodide staining based flow cytometry (reference value: 0.4%); format: functional
# [35] = tested on: MDA-MB-231; assay: Induction of apoptosis in human MDA-MB-231 cells assessed as early apoptotic cells at 2 uM after 48 hrs by Annexin-V FITC/propidium iodide staining based flow cytometry (reference value: 2.6%); format: functional
# [36] = tested on: Mus musculus; assay: In vivo inhibition of STAT3 phosphorylation at Tyr-705 residue in tumor of Kunming mouse implanted with mouse 4T1 cells at 10 to 20 mg/kg, po qd for 14 days; format: functional, organism-based
# [37] = tested on: MDA-MB-231; assay: Induction of apoptosis in human MDA-MB-231 cells assessed as live cells at 5 uM after 48 hrs by Annexin-V FITC/propidium iodide staining based flow cytometry (reference value: 96.1%); format: functional
# [38] = tested on: MDA-MB-231; assay: Antiproliferative activity against human MDA-MB-231 cells assessed as inhibition of colony formation after 48 hrs by crystal violet staining based assay; format: functional, cell-based
# [39] = tested on: MDA-MB-231; assay: Induction of apoptosis in human MDA-MB-231 cells assessed as necrotic cells at 10 uM after 48 hrs by Annexin-V FITC/propidium iodide staining based flow cytometry (reference value: 0.8%); format: functional
# [40] = biological target: Signal transducer and activator of transcription 3 (Homo sapiens) (UniProt P40763); assay: Inhibition of STAT3 phosphorylation at Tyr-705 residue in human MDA-MB-231 cells assessed as decrease in Cyclin D1 protein expression at 1 to 5 uM after 48 hrs by Western blot method; format: cell-based
# [41] = tested on: MDA-MB-231; assay: Induction of apoptosis in human MDA-MB-231 cells assessed as early apoptotic cells at 1 uM after 48 hrs by Annexin-V FITC/propidium iodide staining based flow cytometry (reference value: 2.6%); format: functional
# [42] = tested on: MDA-MB-231; assay: Induction of apoptosis in human MDA-MB-231 cells assessed as necrotic cells at 8 uM after 48 hrs by Annexin-V FITC/propidium iodide staining based flow cytometry (reference value: 0.8%); format: functional
smiles,measurement,setting,value
COc1ccc(/C=C/C(=O)Nc2ccc(/C=C/c3cc(OC)cc(OC)c3)cc2)cc1,IC50,[1],5.96 µM
same,IC50,[2],4.23 µM
COc1cc(/C=C/c2ccc(NC(=O)/C=C/c3ccc(OC)c(OC)c3)cc2)cc(OC)c1,IC50,[1],0.96 µM
same,Ratio IC50,[3],>50
same,IC50,[2],7.74 µM
COc1cc(/C=C/c2ccc(NC(=O)/C=C/c3ccc(Cl)cc3)cc2)cc(OC)c1,IC50,[1],10.3 µM
same,IC50,[2],14.1 µM
COc1cc(/C=C/c2ccc(NC(=O)/C=C/c3ccc(Br)cc3)cc2)cc(OC)c1,IC50,[1],5.26 µM
same,IC50,[2],6.16 µM
COc1cc(/C=C/c2ccc(NC(=O)/C=C/c3ccccc3F)cc2)cc(OC)c1,IC50,[1],2.82 µM
same,IC50,[2],2.38 µM
COc1cc(/C=C/c2ccc(NC(=O)/C=C/c3ccc(O)c(O)c3)cc2)cc(OC)c1,IC50,[1],1.56 µM
same,IC50,[2],4.23 µM
O=C(O)/C=C/c1ccc(O)c(O)c1 [CAFFEIC ACID],IC50,[1],> 100 µM
same,IC50,[2],> 100 µM
COc1cc(/C=C/c2ccc(NC(=O)/C=C/c3cc(OC)c(OC)c(OC)c3)cc2)cc(OC)c1,Ratio IC50,[4],>50
same,IC50,[1],1.82 µM
same,Activity,[5],16.2%
same,Activity,[6],1.1%
same,Activity,[7],87.5%
same,inhibition,[8],Active
same,Ratio IC50,[9],>50
same,Activity,[10],89.7%
same,Activity,[11],51.8%
same,Activity,[12],4.7%
same,inhibition,[13],Dose-dependent effect
same,Activity,[14],1.4%
same,Activity,[15],Non-Toxic
same,Activity,[16],1.3%
same,Activity,[17],74.6%
same,Activity,[18],1.3%
same,Activity,[19],37.1%
same,Activity,[20],1.3%
same,Activity,[21],Dose-dependent effect
same,IC50,[2],2.14 µM
same,inhibition,[22],Active
same,inhibition,[23],Active
same,Activity,[24],Dose-dependent effect
same,TGI,[25],Active
same,inhibition,[26],Active
same,inhibition,[27],Active
same,inhibition,[28],Active
same,Activity,[29],Active
same,Activity,[30],Non-Toxic
same,inhibition,[31],Dose-dependent effect
same,Activity,[32],6.2%
same,Activity,[33],18.5%
same,Activity,[34],10.6%
same,Activity,[35],9.8%
same,inhibition,[36],Active
same,Activity,[37],78%
same,inhibition,[38],Dose-dependent effect
same,Activity,[39],0.7%
same,inhibition,[40],Active
same,Activity,[41],7.7%
same,Activity,[42],0.6%
COc1cc(/C=C/c2ccc(NC(=O)/C=C/c3ccc(C#N)cc3)cc2)cc(OC)c1,IC50,[1],3.32 µM
same,IC50,[2],7.74 µM
COc1cc(/C=C/c2ccc(OC(=O)/C=C/c3ccccc3)cc2)cc(OC)c1,IC50,[1],9.05 µM
same,IC50,[2],9.81 µM
COc1cc(/C=C/c2ccc(OC(=O)/C=C/c3cc(OC)c(OC)c(OC)c3)cc2)cc(OC)c1,IC50,[1],2.91 µM
same,IC50,[2],3.08 µM
Oc1ccc(/C=C/c2cc(O)cc(O)c2)cc1 [RESVERATROL],IC50,[1],> 100 µM
same,IC50,[2],> 100 µM
